Results: PubChem BioAssay (NCI)
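All cell lines were grown in 96-well plates and treated with compound for 48 hours. At the GI50, growth is halved. TGI: concentration producing complete growth inhibition.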

Assays:
Experiment in all cases: inhibition of tumour cell growth, NCI panel, 48 h
786-0 renal = test system: 786-0 renal
HOP-62 NSCLC = test system: HOP-62 NSCLC
LOX IMVI melanoma = test system: LOX IMVI melanoma
M14 melanoma = test system: M14 melanoma
MDA-MB-231 breast = test system: MDA-MB-231 breast
OVCAR-8 ovarian = test system: OVCAR-8 ovarian
UACC-62 melanoma = test system: UACC-62 melanoma

Row | SMILES | GI50 (786-0 renal) [µM] | TGI (786-0 renal) [µM] | GI50 (HOP-62 NSCLC) [µM] | TGI (HOP-62 NSCLC) [µM] | GI50 (LOX IMVI melanoma) [µM] | TGI (LOX IMVI melanoma) [µM] | GI50 (M14 melanoma) [µM] | TGI (M14 melanoma) [µM] | GI50 (MDA-MB-231 breast) [µM] | TGI (MDA-MB-231 breast) [µM] | GI50 (OVCAR-8 ovarian) [µM] | TGI (OVCAR-8 ovarian) [µM] | GI50 (UACC-62 melanoma) [µM] | TGI (UACC-62 melanoma) [µM]
1 | Cn1c(=O)c(Oc2ccc(F)cc2F)cc2cnc(NC3CCC(O)CC3)nc21 (configuration not stated) | > 25 | > 25 | > 25 | > 25 | > 25 | > 25 | > 25 | > 25 | > 25 | > 25 | > 25 | > 25 | > 25 | > 25
2 | COc1ccc(Cl)cc1Nc1nc(C(F)(F)F)ccc1C(=O)N/N=C/c1ccc(Cl)cc1 | 1.22 | 7.09 | 3.51 | 24 | 8.08 | > 100 | 3.69 | > 100 | 5.44 | > 100 | 5.1 | > 100 | 8.01 | 40.9
3 | CCNc1nc(-c2ccc(Cl)c(OC)c2)c(-c2ccnc(NCCNS(=O)(=O)c3ccc(Cl)cc3)n2)s1 | 3.46 | 13.9 | 3.2 | 7.69 | 2.32 | 5.69 | 3.82 | > 100 | 2.15 | 5.03 | 3.88 | > 100 | 2.11 | 5.49
4 | CC(C)c1nc(Cl)c(Cl)c(Cl)n1 |  | 16.1 |  | 25.9 |  | 1.71 |  | 19 |  | 23.2 |  | 8.07 |  | 23.1
5 | COc1ccc(C[C@H](N)C(=O)N[C@@H]2[C@@H](CO)OC(n3cnc4c(N(C)C)ncnc43)[C@@H]2O)cc1 (some centres not stated) |  | 1.24 |  | 1.1 | 0.202 | 0.839 | 0.647 | 1.4 | 0.466 | 1.22 | 0.276 | 1.13 | 0.404 | 1.06
6 | CCC(=C(c1ccc(OCCN(CC)CC)cc1)c1ccc(OCCN(CC)CC)cc1)c1ccc(Cl)cc1 | 0.565 | 1.08 | 0.598 | 1.28 | 0.55 | 1.03 | 0.585 | 1.11 | 0.573 | 1.09 | 0.685 | 1.51 | 0.592 | 1.13
7 | Brc1ccc2c(c1)-c1ccccc1C1=NCCN12 | 1.61 | 11.7 | 0.962 | 8.02 | 0.526 | 10.6 | 1.48 | 3.16 | 1.73 | 4.29 | 0.573 | 12.1 | 1.69 | 3.24
8 | CC(=O)Nc1ccc(C(=O)NN2C(=O)CSC2c2ccccc2)cc1 (configuration not stated) |  | > 100 |  | > 100 |  |  |  | > 100 |  | > 100 |  | > 100 |  | > 100
9 | Cc1c(-c2ccc(N3CCc4cccc(C(=O)Nc5nc6ccccc6s5)c4C3)nc2C(=O)O)cnn1CC12CC3CC(CC(C3)C1)C2 | 3.65 | 12.4 | 10.1 | 27.8 | 5.92 | 23.4 | 7.7 | 25.4 |  |  | 7.49 | 33 | 3.65 | 15.4
